Data as given in patent US20160122307A1, “PERHYDROQUINOXALINE DERIVATIVES” (DR. AUGUST WOLFF GMBH & CO. KG ARZNEIMITTEL, priority 2013, published 2016).
Where two headings read alike, the source gives them in different places.

Target: Human opiate κ receptors (Homo sapiens, UniProt P41145)
Assay: κ opioid receptor functional assay, [35S]GTPγS binding (assay C)
Format: biochemical
Conditions: for activation at 1 µM: 0.5 h, read-out: % activation functional assay at 1 μM

Chain of Human opiate κ receptors (P41145 whole entry): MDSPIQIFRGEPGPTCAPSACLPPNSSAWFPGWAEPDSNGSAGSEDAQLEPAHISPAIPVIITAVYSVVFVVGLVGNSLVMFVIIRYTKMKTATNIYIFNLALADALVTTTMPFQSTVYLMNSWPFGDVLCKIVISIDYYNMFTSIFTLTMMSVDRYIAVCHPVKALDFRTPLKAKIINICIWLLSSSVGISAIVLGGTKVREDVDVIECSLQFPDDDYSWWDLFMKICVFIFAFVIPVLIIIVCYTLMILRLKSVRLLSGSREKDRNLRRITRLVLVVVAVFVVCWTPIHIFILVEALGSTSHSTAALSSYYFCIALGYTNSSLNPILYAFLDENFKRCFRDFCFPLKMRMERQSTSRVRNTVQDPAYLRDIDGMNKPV

Row | Compound | activation at 1 µM | EC50 (GTPγS EC50 (nM)) | further results
1 | O=C(Cc1ccc(Cl)c(Cl)c1)N1CCN(Cc2cccnc2)C2CCCC(N3CCC(O)C3)C21 (mixture of isomers) [AC, reference compound] |  |  | activation (% of control) at 1 μM: 102 % of control; EC50 (EC50 (nM) [35S]GTPγS binding): 77 nM
2 | O=C(O)CC(=O)N1CCN(C(=O)Cc2ccc(Cl)c(Cl)c2)C2C(N3CCC(O)C3)CCCC21 (mixture of isomers) [T, reference compound] |  |  | activation (% of control) at 1 μM: 11 % of control; activation of the kappa opioid receptors at 1 μM: no or little activation; EC50 (EC50 (nM) [35S]GTPγS binding): > 1000 nM
3 | O=C(O)CC(=O)N1CCN(C(=O)Cc2ccc(Cl)c(Cl)c2)C2C(N3CCCC3)CCCC21 (racemic) [AD, reference compound] |  |  | activation (% of control) at 1 μM: 22 % of control; activation of the kappa opioid receptors at 1 μM: no or little activation; EC50 (read-out: EC50 (nM) [35S]GTPγS binding): > 1000 nM; EC50 (read-out: EC50 kappa opioid receptor activation): > 1000 nM
4 | O=C(O)CCC(=O)N1CCN(C(=O)Cc2ccc(Cl)c(Cl)c2)[C@H]2[C@H]1CCC[C@@H]2N1CCCC1 (racemic) [AE, reference compound] |  |  | activation (% of control) at 1 μM: 43 % of control; activation of the kappa opioid receptors at 1 μM: no or little activation; EC50 (EC50 (nM) [35S]GTPγS binding): > 1000 nM
5 | COC(=O)N1CCN(C(=O)Cc2ccc(Cl)c(Cl)c2)[C@@H]2[C@@H](N3CCCC3)CCC[C@@H]21 (racemic) [Example 1] | 109% |  | activation (% of control) at 1 μM: 109 % of control
6 | COC(=O)N1CCN(C(=O)Cc2cccc([N+](=O)[O-])c2)C2C(N3CCCC3)CCCC21 (racemic) [Example 3] | 105% | 10 to 100 nM | 
7 | COC(=O)N1CCN(C(=O)Cc2ccc(C(F)(F)F)cc2)C2C(N3CCCC3)CCCC21 (racemic) [Example 5] | 105% | < 10 nM | 
8 | COC(=O)N1CCN(C(=O)Cc2ccc3c(c2)CCCC3)C2C(N3CCCC3)CCCC21 (racemic) [Example 6] | 97% | 10 to 100 nM | 
9 | COC(=O)N1CCN(C(=O)Cc2cc(Cl)c3c(c2)OCCO3)C2C(N3CCCC3)CCCC21 (racemic) [Example 7] | 101% | 10 to 100 nM | 
10 | COC(=O)N1CCN(C(=O)Cc2ccc(Cl)s2)C2C(N3CCCC3)CCCC21 (racemic) [Example 8] | 97% | 10 to 100 nM | 
11 | COC(=O)N1CCN(C(=O)Cc2ccc3ccccc3c2)C2C(N3CCCC3)CCCC21 (racemic) [Example 10] | 100% | 10 to 100 nM | 
12 | COC(=O)N1CCN(C(=O)Cc2ccc(Cl)c(Cl)c2)C2C(N3CC=CCC3)CCCC21 (racemic) [Example 12] | 96% | 10 to 100 nM | 
13 | COC(=O)N1CCN(C(=O)Cc2ccc(Cl)c(Cl)c2)C2C1CCCC2N(C)C(C)C (racemic) [Example 13] | 98% | < 10 nM | 
14 | COC(=O)N1CCN(C(=O)Cc2ccc(C(F)(F)F)cc2)C2C1CCCC2N(C)C(C)C (racemic) [Example 14] | 104% | < 10 nM | 
15 | O=C(Cc1ccc(Cl)c(Cl)c1)N1CCN(Cc2ccccc2)[C@H]2CCC[C@H](N3CCCC3)[C@H]21 (racemic) [Example 15] | 89% | < 10 nM | activation (% of control) at 1 μM: 89 % of control; EC50 (EC50 (nM) [35S]GTPγS binding): 7.39 nM
16 | O=C(Cc1ccc(Cl)c(Cl)c1)N1CCN(C(=O)OCc2ccccc2)[C@H]2CCC[C@H](N3CCCC3)[C@H]21 (racemic) [Example 16] | 102% | < 10 nM | 
17 | COC(=O)N1CCN(C(=O)Cc2ccc(F)c(F)c2)C2C(N3CCCC3)CCCC21 (racemic) [Example 18] | 112% | < 10 nM | 
18 | COC(=O)N1CCN(C(=O)Cc2ccc(Cl)c(F)c2)C2C(N3CCCC3)CCCC21 (racemic) [Example 19] | 100% | < 10 nM | 
19 | COC(=O)N1CCN(C(=O)Cc2ccc(F)c(Cl)c2)C2C(N3CCCC3)CCCC21 (racemic) [Example 20] | 96% | < 10 nM | 
20 | COC(=O)N1CCN(C(=O)Cc2ccc(F)c(OC)c2)C2C(N3CCCC3)CCCC21 (racemic) [Example 21] | 103% | 10 to 100 nM | 
21 | COC(=O)N1CCN(C(=O)Cc2ccc(OC)c(F)c2)C2C(N3CCCC3)CCCC21 (racemic) [Example 22] | 78% | 100 to 1000 nM | 
22 | CS(=O)(=O)N1CCN(C(=O)Cc2ccc(Cl)c(Cl)c2)C2C(N3CCCC3)CCCC21 (racemic) [Example 23] | 91% | < 10 nM | 
23 | CC(C)(C)OC(=O)N1CCN(C(=O)Cc2ccc(Cl)c(Cl)c2)[C@@H]2[C@@H](N3CCCC3)CCC[C@@H]21 (racemic) [Example 24] | 105% | < 10 nM | 
24 | CCC(=O)N1CCN(C(=O)Cc2ccc(Cl)c(Cl)c2)C2C(N3CCCC3)CCCC21 (racemic) [Example 25] | 102% | < 10 nM | activation (% of control) at 1 μM: 102 % of control; EC50 (EC50 (nM) [35S]GTPγS binding): 2.55 nM
25 | CC(C)C(=O)N1CCN(C(=O)Cc2ccc(Cl)c(Cl)c2)C2C(N3CCCC3)CCCC21 (racemic) [Example 26] | 119% | < 10 nM | 
26 | O=C(C1CCC1)N1CCN(C(=O)Cc2ccc(Cl)c(Cl)c2)C2C(N3CCCC3)CCCC21 (racemic) [Example 27] | 103% | < 10 nM | 

Row | Compound | activation at 1 µM | EC50 (GTPγS EC50 (nM)) | further results
27 | O=C(C1CC1)N1CCN(C(=O)Cc2ccc(Cl)c(Cl)c2)C2C(N3CCCC3)CCCC21 (racemic) [Example 28] | 111% | < 10 nM | 
28 | O=C(c1ccco1)N1CCN(C(=O)Cc2ccc(Cl)c(Cl)c2)C2C(N3CCCC3)CCCC21 (racemic) [Example 29] | 96% |  | 
29 | O=C(c1cccs1)N1CCN(C(=O)Cc2ccc(Cl)c(Cl)c2)C2C(N3CCCC3)CCCC21 (racemic) [Example 30] | 110% |  | 
30 | O=C(c1ccccc1)N1CCN(C(=O)Cc2ccc(Cl)c(Cl)c2)C2C(N3CCCC3)CCCC21 (racemic) [Example 31] | 93% |  | activation (% of control) at 1 μM: 93 % of control
31 | O=C(c1ccccn1)N1CCN(C(=O)Cc2ccc(Cl)c(Cl)c2)C2C(N3CCCC3)CCCC21 (racemic) [Example 32] | 88% |  | 
32 | CN(C)C(=O)N1CCN(C(=O)Cc2ccc(Cl)c(Cl)c2)C2C(N3CCCC3)CCCC21 (racemic) [Example 34] | 107% | 10 to 100 nM | 
33 | CN(C)S(=O)(=O)N1CCN(C(=O)Cc2ccc(Cl)c(Cl)c2)C2C(N3CCCC3)CCCC21 (racemic) [Example 35] | 108% | < 10 nM | 
34 | COC(=O)CC(=O)N1CCN(C(=O)Cc2ccc(Cl)c(Cl)c2)C2C(N3CCCC3)CCCC21 (racemic) [Example 36] | 93% | < 10 nM | activation (% of control) at 1 μM: 93 % of control; EC50 (EC50 (nM) [35S]GTPγS binding): 9.74 nM
35 | O=C(O)CC(=O)N1CCN(C(=O)Cc2ccc(Cl)c(Cl)c2)C2C(N3CCCC3)CCCC21 (racemic) [Example 37] | 87% | 10 to 100 nM | activation (% of control) at 1 μM: 87 % of control; EC50 (EC50 kappa opioid receptor activation): 22 nM
36 | O=C(N1CCCC1)N1CCN(C(=O)Cc2ccc(Cl)c(Cl)c2)C2C(N3CCCC3)CCCC21 (racemic) [Example 38] | 109% | 10 to 100 nM | 
37 | CCNC(=O)N1CCN(C(=O)Cc2ccc(Cl)c(Cl)c2)C2C(N3CCCC3)CCCC21 (racemic) [Example 40] | 96% | < 10 nM | 
38 | CC(C)NC(=O)N1CCN(C(=O)Cc2ccc(Cl)c(Cl)c2)C2C(N3CCCC3)CCCC21 (racemic) [Example 42] | 96% | < 10 nM | 
39 | O=C(Nc1ccccc1)N1CCN(C(=O)Cc2ccc(Cl)c(Cl)c2)C2C(N3CCCC3)CCCC21 (racemic) [Example 43] | 107% | < 10 nM | 
40 | CCN(C)C1CCCC2C1N(C(=O)Cc1ccc(Cl)c(Cl)c1)CCN2C(=O)OC (racemic) [Example 45] | 91% | < 10 nM | 
41 | COC(=O)N1CCN(C(=O)Cc2cccc(Cl)c2)C2C(N3CCCC3)CCCC21 (racemic) [Example 46] | 96% | < 10 nM | 
42 | COC(=O)N1CCN(C(=O)Cc2ccc(Cl)cc2)C2C(N3CCCC3)CCCC21 (racemic) [Example 47] | 101% | < 10 nM | 
43 | O=C(Cc1ccc(Cl)c(Cl)c1)N1CCN(Cc2cccnc2)C2CCCC(N3CCCC3)C21 (racemic) [Example 48] | 100% | < 10 nM | activation (% of control) at 1 μM: 100 % of control; EC50 (EC50 (nM) [35S]GTPγS binding): 4.99 nM
44 | O=C(Cc1ccc(Cl)c(Cl)c1)N1CCN(Cc2cnc[nH]2)C2CCCC(N3CCCC3)C21 (racemic) [Example 49] | 112% | < 10 nM | activation (% of control) at 1 μM: 112 % of control; EC50 (EC50 (nM) [35S]GTPγS binding): 6.65 nM
45 | COC(=O)N1CCN(C(=O)Cc2ccc(C(F)(F)F)c(Cl)c2)C2C(N3CCCC3)CCCC21 (racemic) [Example 50] | 118% | < 10 nM | 
46 | O=C(C1CCCC1)N1CCN(C(=O)Cc2ccc(Cl)c(Cl)c2)C2C(N3CCCC3)CCCC21 (racemic) [Example 51] | 97% | < 10 nM | 
47 | O=C(C1COC1)N1CCN(C(=O)Cc2ccc(Cl)c(Cl)c2)C2C(N3CCCC3)CCCC21 (racemic) [Example 54] | 104% | 10 to 100 nM | 
48 | CC(=O)OCC(=O)N1CCN(C(=O)Cc2ccc(Cl)c(Cl)c2)C2C(N3CCCC3)CCCC21 (racemic) [Example 58] | 96% | 10 to 100 nM | 
49 | O=C(CO)N1CCN(C(=O)Cc2ccc(Cl)c(Cl)c2)C2C(N3CCCC3)CCCC21 (racemic) [Example 59] | 109% | 10 to 100 nM | 
50 | CNC(=O)N1CCN(C(=O)Cc2ccc(Cl)c(Cl)c2)C2C(N3CCCC3)CCCC21 (racemic) [Example 62] | 104% | 10 to 100 nM | 
51 | COC(=O)C(=O)N1CCN(C(=O)Cc2ccc(Cl)c(Cl)c2)C2C(N3CCCC3)CCCC21 (racemic) [Example 65] | 104% | < 10 nM | 
52 | NC(=O)C(=O)N1CCN(C(=O)Cc2ccc(Cl)c(Cl)c2)C2C(N3CCCC3)CCCC21 (racemic) [Example 66] | 100% | 10 to 100 nM | 
